Laboratory results reported in US10016396B2, “Dexmedetomidine premix formulation” (Hospira, Inc., priority 2012, dated 2018).
Where a name gives a salt, the structure may show the parent alone. Read-outs that look alike come from different tables or passages of the source.

Method: The stability of dexmedetomidine hydrochloride to acidic, basic, oxidative and photolytic stress was examined. […] Each sample was injected in duplicate.

degradation compared to the control sample (8 h, 13.3 μg/mL): 12.7% | Assay (Acid Sample: 5N Hydrochloric Acid, 60° C., 8 hours): 95.2% | Assay (Base Sample: 2N Sodium Hydroxide, 60° C., 4 hours): 93.8% | Assay (Control Sample, not subjected to any stress): 98.4% | Assay (Heat Sample: 60° C., 8 hours): 98.4% | Assay (Light Sample: photochemical reaction unit, 24 hours): 92.0% | Assay (Oxidation Sample: 0.3% Hydrogen Peroxide, 60° C., 8 hours): 85.7%
Structure (SMILES): Cc1cccc([C@H](C)c2cnc[nH]2)c1C [dexmedetomidine hydrochloride]
